Measurements from PubChem BioAssay (NCI).
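These data come from cells grown in 96-well plates and exposed to compound for 48 hours at five concentrations. The concentration for full growth arrest is given as TGI.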 Activity calls are given as the source filed them. Rule as the data show it: active = GI50 below about 0.43 µM; inactive = the rest.

What was measured:
Experiment in all cases: NCI anticancer screen, dose series, 48 h
[1] = system: A549 NSCLC
[2] = system: SK-MEL-28 melanoma
[3] = system: M14 melanoma
[4] = system: OVCAR-4 ovarian
[5] = system: HOP-92 NSCLC
[6] = system: MDA-MB-231 breast
[7] = system: SF-295 CNS
[8] = system: OVCAR-3 ovarian
[9] = system: SR leukemia
[10] = system: TK-10 renal
[11] = system: SK-MEL-5 melanoma
[12] = system: UACC-257 melanoma
[13] = system: SNB-19 CNS
[14] = system: COLO 205 colon
[15] = system: DU-145 prostate
[16] = system: NCI-H460 lung
[17] = system: SK-MEL-2 melanoma
[18] = system: HCT-15 colon
[19] = system: NCI-H522 lung
[20] = system: SK-OV-3 ovarian
[21] = system: HL-60(TB) leukemia
[22] = system: KM12 colon
[23] = system: HCC-2998 colon
[24] = system: NCI-H23 lung
[25] = system: MCF7 breast
[26] = system: HOP-62 NSCLC
[27] = system: UO-31 renal
[28] = system: MALME-3M melanoma
[29] = system: UACC-62 melanoma
[30] = system: OVCAR-8 ovarian
[31] = system: EKVX NSCLC
[32] = system: MDA-MB-435
[33] = system: BT-549 breast
[34] = system: ACHN renal
[35] = system: MOLT-4 leukemia
[36] = system: SF-539 CNS
[37] = system: SNB-75 CNS
[38] = system: SF-268 CNS
[39] = system: HS 578T breast
[40] = system: SN12C renal
[41] = system: NCI/ADR-RES ovarian
[42] = system: A498 renal
[43] = system: OVCAR-5 ovarian
[44] = system: NCI-H226 lung
[45] = system: LOX IMVI melanoma
[46] = system: SW-620 colon
[47] = system: T-47D breast
[48] = system: CAKI-1 renal
[49] = system: HCT-116 colon
[50] = system: CCRF-CEM leukemia
[51] = system: 786-0 renal
[52] = system: K-562 leukemia
[53] = system: MDA-N
[54] = system: U251 CNS
[55] = system: HT29 colon
[56] = system: IGROV1 ovarian
[57] = system: PC-3 prostate
[58] = system: RPMI-8226 leukemia
[59] = system: RXF 393 renal

CCCC(=O)OCC(COC(=O)CCC)OC(=O)CCC
TGI [1]: > 100 µM
outcome [1]: inactive
TGI [2]: > 100 µM
outcome [2]: inactive
TGI [3]: > 100 µM
outcome [3]: inactive
TGI [4]: > 100 µM
outcome [4]: inactive
TGI [5]: > 100 µM
TGI [6]: > 100 µM
outcome [6]: inactive
TGI [7]: > 100 µM
outcome [7]: inactive
TGI [8]: > 100 µM
outcome [9]: inactive
TGI [10]: > 100 µM
outcome [10]: inactive
TGI [11]: > 100 µM
outcome [11]: inactive
TGI [12]: > 100 µM
outcome [12]: inactive
TGI [13]: > 100 µM
outcome [13]: inactive
TGI [14]: > 100 µM
outcome [14]: inactive
TGI [15]: > 100 µM
outcome [15]: inactive
TGI [16]: > 100 µM
outcome [16]: inactive
TGI [17]: > 100 µM
outcome [17]: inactive
TGI [18]: > 100 µM
outcome [18]: inactive
TGI [19]: > 100 µM
TGI [20]: > 100 µM
outcome [20]: inactive
TGI [21]: 90.7 µM
outcome [21]: inactive
TGI [22]: > 100 µM
outcome [22]: inactive
TGI [23]: > 100 µM
outcome [23]: inactive
TGI [24]: > 100 µM
outcome [24]: inactive
TGI [25]: > 100 µM
outcome [25]: inactive
TGI [26]: > 100 µM
outcome [26]: inactive
TGI [27]: > 100 µM
outcome [27]: inactive
TGI [28]: > 100 µM
outcome [28]: inactive
TGI [29]: > 100 µM
TGI [30]: > 100 µM
outcome [30]: inactive
TGI [31]: > 100 µM
outcome [31]: inactive
TGI [32]: > 100 µM
outcome [32]: inactive
TGI [33]: > 100 µM
TGI [34]: > 100 µM
outcome [34]: inactive
TGI [35]: > 100 µM
outcome [35]: inactive
TGI [36]: > 100 µM
outcome [36]: inactive
TGI [37]: > 100 µM
outcome [37]: inactive
TGI [38]: > 100 µM
outcome [38]: inactive
TGI [39]: > 100 µM
outcome [39]: inactive
TGI [40]: > 100 µM
outcome [40]: inactive
TGI [41]: 88.6 µM
outcome [41]: inactive
TGI [42]: > 100 µM
outcome [42]: inactive
TGI [43]: > 100 µM
TGI [44]: > 100 µM
outcome [44]: inactive
TGI [45]: > 100 µM
outcome [45]: inactive
TGI [46]: > 100 µM
outcome [46]: inactive
TGI [47]: > 100 µM
TGI [48]: > 100 µM
outcome [48]: inactive
TGI [49]: > 100 µM
outcome [49]: inactive
TGI [50]: > 100 µM
outcome [50]: inactive
TGI [51]: > 100 µM
outcome [51]: inactive
TGI [52]: > 100 µM
outcome [52]: inactive
TGI [53]: > 100 µM
outcome [53]: inactive
TGI [54]: > 100 µM
outcome [54]: inactive
TGI [55]: > 100 µM
outcome [55]: inactive
TGI [56]: > 100 µM
TGI [57]: > 100 µM
outcome [57]: inactive
TGI [58]: > 100 µM
outcome [58]: inactive
TGI [59]: > 100 µM

C=C1C(=O)O[C@@H]2C[C@@H]3[C@]4(CC[C@]5(C)[C@@H]([C@H](C)CC/C=C(\C)C=O)CC[C@@]35C)C[C@]4(CCC(=O)OC)[C@H]12
TGI [1]: 13.9 µM
TGI [2]: 3.99 µM
TGI [3]: 2.91 µM
TGI [4]: 3.62 µM
TGI [5]: 3.88 µM
TGI [6]: 3.66 µM
TGI [7]: 4.54 µM
TGI [8]: 3.02 µM
TGI [9]: 2.32 µM
TGI [10]: 3.99 µM
TGI [11]: 2.3 µM
TGI [12]: 1.13 µM
TGI [13]: 3.9 µM
TGI [14]: 5.64 µM
TGI [15]: 3.31 µM
TGI [16]: 9.13 µM
TGI [17]: 3.43 µM
TGI [18]: 3.71 µM
TGI [19]: 8.91 µM
TGI [20]: 6.72 µM
TGI [21]: 1.29 µM
TGI [22]: 3.89 µM
TGI [23]: 4.1 µM
TGI [24]: 3.77 µM
TGI [25]: 2.9 µM
TGI [26]: 4.21 µM
TGI [27]: 3.53 µM
TGI [28]: 3.05 µM
TGI [29]: 3.06 µM
TGI [30]: 2.15 µM
TGI [31]: 7.55 µM
TGI [32]: 3.16 µM
TGI [33]: 5.01 µM
TGI [34]: 3.89 µM
TGI [35]: 2.94 µM
TGI [36]: 4.22 µM
TGI [37]: 4.51 µM
TGI [38]: 2.73 µM
TGI [39]: 6.77 µM
TGI [40]: 3.85 µM
TGI [41]: 7.99 µM
TGI [42]: 5.33 µM
TGI [43]: 3.96 µM
TGI [44]: 10.8 µM
TGI [45]: 2.61 µM
TGI [46]: 4.11 µM
TGI [47]: 4.93 µM
TGI [48]: 6.7 µM
TGI [49]: 2.03 µM
TGI [50]: 0.617 µM
TGI [51]: 3.23 µM
TGI [52]: 2.67 µM
TGI [53]: 3.42 µM
TGI [54]: 2.86 µM
TGI [55]: 11 µM
TGI [56]: 4.63 µM
TGI [57]: 4.48 µM
TGI [58]: 1.22 µM
TGI [59]: 3.56 µM
